Measured values published in US9029327B2, “Vaccine” (Affiris AG, priority 2009, dated 2015).
No end group written: not given here.

Key:
Ang II peptide = assay: peptide based ELISA of sera from vaccinated mice: binding capacity/titers against the Ang II peptide; assay type: in vivo; details: BALB/c mice, peptide-KLH, Alum; for reactivity/titer of induced sera against Ang II: ELISA titer ODmax/2, compared with sera evoked by Ang II peptide (set as 100%)
Description: (§1) In each Figure, on the X-axis sera derived from animals immunized with indicated peptides are listed. On the Y-axis relative titers of induced sera are shown. Titers derived from Ang II treated animals were set as 100%. Titers were calculated as the sera dilution giving half-maximal binding (i.e. ODmax/2). White bars indicate titers against the peptides that were used for vaccination while black bars represent titers against the Ang II peptide.
Therefore, in a first set of experiments each position in the Ang II sequence was systematically replaced by amino acids having similar or different features (see Table 1 for position 2). Subsequently all these peptides were chemically linked via an additional N-terminal cysteine to the protein carrier keyhole limpet haemocyanin (KLH) and administrated to mice (BALB/c) together with Alum as adjuvant. Sera from vaccinated mice were used to analyze the immunogenicity of indicated peptides. For this purpose a peptide based ELISA assay was used to define sera titers against the injected peptide (i.e. Ang II peptide variants, VARIOTOPEs) as well as to define the binding capacity of the obtained sera against the Ang II peptide.
as §1, with “the Figures (FIGS. 1 to 8 for position 1 to position 8) the results derived from these experiments are shown. On” for “each Figure, on”
(§2) All peptides listed in Table 2 were again chemically linked via the N-terminus to KLH adsorbed to Alum and injected s.c. into experimental animals (BALB/c mice). Sera were analyzed by ELISA and antibody responses induced by the peptide variants were compared to that one induced by the original peptide.

[1] = % of the activity of Ang II; cited from earlier work
[2] = system: injected peptide (Ang II peptide variants, VARIOTOPEs); assay: peptide based ELISA of sera from vaccinated mice: titers against the injected peptide; assay type: in vivo; details: BALB/c mice, peptide linked via N-terminal cysteine to KLH, Alum; ELISA titer ODmax/2, compared with Ang II treated animals (set as 100%)
Description: as §1
Therefore, in a first set of experiments each position in the Ang II sequence was systematically replaced by amino acids having similar or different features (see Table 1 for position 2). Subsequently all these peptides were chemically linked via an additional N-terminal cysteine to the protein carrier keyhole limpet haemocyanin (KLH) and administrated to mice (BALB/c) together with Alum as adjuvant. […]
In the Figures (FIGS. 1 to 8 for position 1 to position 8) the results derived from these experiments are shown. […] Titers were calculated as the sera dilution giving half-maximal binding (i.e. ODmax/2). […]
as §2

| Substance | reactivity/titer of induced sera against Ang II (Ang II peptide) | further results |
| --- | --- | --- |
| C-DRAAAHAF (CDRAAAHAF; also: C-terminal modification) | diminished reactivity |  |
| C-DAVYIAAA (CDAVYIAAA; also: C-terminal modification) | diminished reactivity |  |
| C-DAVYIAPF (CDAVYIAPF; also: C-terminal modification) | diminished reactivity |  |
| Ang IV |  | activity relative to Ang II [1]: approximately 40% |
| C-DRVYAAPF (CDRVYAAPF; also: C-terminal modification) | diminished reactivity |  |
| C-DRVYIHAA (CDRVYIHAA; also: C-terminal modification) | diminished reactivity |  |
| C-DAVYIAAF (CDAVYIAAF; also: C-terminal modification) | diminished reactivity | sera titer against the injected peptide [2]: lower compared to the titers induced by the other antigens |
| peptide variant with G on position 1: Ang II peptide CDRVYIHPF with G on position 1, KLH-linked; compare GRVYIHPF (SEQ ID NO:6) |  | increase of reactivity against Ang II (Ang II peptide; versus sera of Ang II treated animals): ~50%; sera titer against the injected peptide [2]: almost twice as high |
